{"source": "patent US20050255071A1", "about": "“Preparation having improved therapeutic breadth comprising nucleotide synthesis inhibitors” (Aventis Pharma Deutschland GmbH, priority 1998, published 2005)", "key": {"[1]": {"system": "Adjuvant-Induced Arthritis", "assay_type": "in vivo, rats", "procedure": "Adjuvant-Induced Arthritis, Modification According to Perper (Proc. Soc. Exp. Biol. Med. 137, 506 (1971)).\n(§1) The experimental animals used were male rats of a Lewis strain (Moellegard, Denmark) having a body weight of from 160 to 210 g. On the 1st day, the animals were injected subcutaneously, into the tail root, with complete Freund's adjuvant containing a Mycobacterium butyricum suspension in heavy paraffin oil (Difco, 6 mg/kg in paraffin oil, Merck). The compounds N-(4-trifluoromethylphenyl)-2-cyano-3-hydroxycrotonamide and colestyramine were suspended in carboxymethylcellulose (1% in water), and administered orally. The compounds were administered once daily from the 1st to the 17th day of the experiment; the paw volume and arthritis index were then determined on the 18th day.\nThe severity of the disorder was determined by measuring the paw volume of both hind paws. The measurement was carried out by means of the water displacement method using a 2060 Plethys monitor (Rhema-Labortechnik, Hofheim, Germany). The arthritis index was furthermore determined in the 18th day after injection.\nDetermination of the arthritis index was scored as follows:\nOn the first day, animals of an “arthritis control” control group were given a subcutaneous injection, into the tail root, with complete Freund's adjuvant but were given only the solvent (i.e., 1% cabrboxymethylcellulose in water). Six animals in each case were used per dose and in the control group. Untreated animals were employed as a further “healthy control” control group. The activity criteria used were the reduction of the increase in the paw volume and the decrease in the arthritis index, compared with the untreated control group, and the weight of the animals, in each case in percent and based on the arthritis control.\nIn the following table, N-(4-trifluoromethylphenyl)-2-cyano-3-hydroxycrotonamide is compound 1. Colestyramine was administered 4 hours later than compound 1."}, "[2]": {"experiment": "GOT, GPT, RBC, HGB, HCT in adjuvant-arthritis rats (Example 2)", "conditions": "rat, in vivo, po, 25 mg/kg", "procedure": "as §1\nThe experimental conditions were analogous to Example 1. The actions of compound 1 and colestyramine on the amount of red blood corpuscles (RBC), hemoglobin content (HGB), hematocrit (HCT), amount of glutamate oxlacetate transaminase (GOT), and glutamate pyruvate transaminase (GPT) were determined. Colestyramine was administered 4 hours later than compound 1."}, "[3]": {"experiment": "Alkaline phosphatase and amylase in adjuvant-arthritis rats (Example 3)", "conditions": "rat, in vivo, po, 25 mg/kg", "procedure": "as §1\nThe experimental conditions were analogous to Example 1. The actions of compound 1 and colestyramine on the amount on the of alkaline phosphatase (AP) and amylase were determined. Colestyramine was administered 4 hours later than compound 1."}, "[4]": {"experiment": "Blood level and duration of action of compound 1 after time-displaced colestyramine", "assay_type": "in vivo", "conditions": "with time-displaced administration of colestyramine (2 hours or 4 hours after compound 1)", "from_the_text": "The preparation according to the invention can also include compositions or combination packs in which the constituents are placed next to one another and can therefore be used simultaneously, separately, or sequentially on one and the same human or animal body. The sequential administration of a compound of formula (I) and/or (II) before the administration of a compound, which essentially prevents the enterohepatic circulation of a compound of formula (I) and (II), is preferred. To this end, for example, N-(4-trifluoromethylphenyl)-2-cyano-3-hydroxycrotonamide (called compound 1 in the following) is administered first. Colestyramine, which essentially prevents the enterohepatic circulation of compound 1, is administered with a displacement in time, i.e., 2 hours or 4 hours after the administration of compound 1. Because of the time-displaced administration of compound 1 relative to colestyramine, compound 1 is initially absorbed unhindered from the digestive tract. After the administration of colestyramine, which is not absorbed systemically, compound 1 excreted via the bowel is bound to colestyramine, and cannot therefore be reabsorbed again; as a result, an interruption to the enterohepatic circulation is brought about."}, "[5]": {"conditions": "Example 1, 2.5 mg/kg of live weight oral once daily day 1-17, day 18"}, "[6]": {"conditions": "Example 1, 7.5 mg/kg of live weight oral once daily day 1-17, day 18"}, "[7]": {"conditions": "Example 1, 25 mg/kg of live weight oral once daily day 1-17, day 18"}, "[8]": {"conditions": "Example 2, 25 mg/kg of live weight oral"}, "[9]": {"conditions": "Example 3, 25 mg/kg of live weight oral"}}, "note": "Read-outs that look alike come from different tables or passages of the source.", "data": [{"smiles": "C/C(O)=C(\\C#N)C(=O)Nc1ccc(C(F)(F)F)cc1", "note": "[Compound 1, N-(4-trifluoromethylphenyl)-2-cyano-3-hydroxycrotonamide]", "values": [{"measurement": "desired actions on the immune system", "setting": "[1]; 25 mg/kg/day of compound 1, with administration of colestyramine", "value": "retention"}, {"measurement": "Arthritis index", "setting": "[1]; [5]", "value": "−77", "unit": "%"}, {"measurement": "Paw Volume", "setting": "[1]; [5]", "value": "−63", "unit": "%"}, {"measurement": "Arthritis index", "setting": "[1]; [6]", "value": "−92", "unit": "%"}, {"measurement": "Paw Volume", "setting": "[1]; [6]", "value": "−83", "unit": "%"}, {"measurement": "Arthritis index", "setting": "[1]; [7]", "value": "−100", "unit": "%"}, {"measurement": "Paw Volume", "setting": "[1]; [7]", "value": "−92", "unit": "%"}, {"measurement": "Arthritis index", "setting": "[1]; [8]", "value": "−100", "unit": "%"}, {"measurement": "Paw Volume", "setting": "[1]; [8]", "value": "−92", "unit": "%"}, {"measurement": "Arthritis index", "setting": "[1]; [9]", "value": "−100", "unit": "%"}, {"measurement": "Paw Volume", "setting": "[1]; [9]", "value": "−110", "unit": "%"}, {"measurement": "activity in adjuvant arthritis", "setting": "[1]; approximately 2.5 mg/kg/day of compound 1, with administration of colestyramine", "value": "not reduced"}, {"measurement": "GOT", "setting": "[2]", "value": 85.3, "unit": "U/I"}, {"measurement": "GPT", "setting": "[2]", "value": 25.1, "unit": "U/I"}, {"measurement": "HCT", "setting": "[2]", "value": 18.7, "unit": "%"}, {"measurement": "HGB", "setting": "[2]", "value": 6.1, "unit": "g/dL"}, {"measurement": "RBC", "setting": "[2]", "value": "3.8 *10^6/mm^3"}, {"measurement": "AP", "setting": "[3]", "value": 114.8, "unit": "U/I"}, {"measurement": "Amylase", "setting": "[3]", "value": 1306.5, "unit": "U/I"}, {"measurement": "blood level of compound 1", "setting": "[4]", "value": "drastically reduced"}, {"measurement": "duration of action", "setting": "[4]", "value": "drastically reduced"}]}]}
